± gives the expanded uncertainty stated by the source.
Columns and labels:
[1] = 101.33 kPa, Liquid
[2] = xn = mol fraction of the nth substance listed; settings: 101 kPa, Liquid

OCCOCCO [diethylene glycol]
[1]
Settings | mass density [kg/m3] | speed of sound [m/s] | viscosity [mPa·s]
298.15 K | 1113.51 ± 0.32 | 1580 ± 2 | 30.01 ± 0.42
303.15 K | 1109.56 ± 0.31 | – | –
308.15 K | 1106.22 ± 0.3 | 1550 ± 2 | 16.97 ± 0.33
313.15 K | 1103.02 ± 0.3 | – | –

CC(=O)OCCC(C)C [3-methylbutyl ethanoate] + CC(O)CO
[2]
Settings | mass density, 298.15 K [kg/m3] | mass density, 303.15 K [kg/m3] | mass density, 308.15 K [kg/m3] | mass density, 313.15 K [kg/m3] | speed of sound, 298.15 K [m/s] | speed of sound, 308.15 K [m/s] | viscosity, 298.15 K [mPa·s] | viscosity, 308.15 K [mPa·s]
x1 = 0.0455 | 1017.21 ± 0.37 | 1013.29 ± 0.38 | 1009.48 ± 0.39 | 1005.69 ± 0.4 | 1460 ± 2 | 1425 ± 2 | 31.61 ± 0.43 | 18.4 ± 0.34
x1 = 0.1457 | 988 ± 0.47 | 983.78 ± 0.48 | 979.64 ± 0.49 | 976.02 ± 0.5 | 1398 ± 2 | 1369 ± 2 | 16.42 ± 0.26 | 10.43 ± 0.16
x1 = 0.2483 | 963.53 ± 0.56 | 959.11 ± 0.58 | 954.73 ± 0.59 | 951.27 ± 0.6 | 1346 ± 2 | 1320 ± 2 | 8.962 ± 0.14 | 6.168 ± 0.095
x1 = 0.3508 | 943.13 ± 0.64 | 938.57 ± 0.66 | 934.01 ± 0.67 | 930.68 ± 0.68 | 1304 ± 2 | 1281 ± 2 | 5.224 ± 0.084 | 3.864 ± 0.06
x1 = 0.452 | 926.02 ± 0.71 | 921.33 ± 0.73 | 916.63 ± 0.74 | 913.4 ± 0.75 | 1270 ± 2 | 1248 ± 2 | 3.269 ± 0.052 | 2.574 ± 0.041
x1 = 0.4959 | 919.36 ± 0.74 | 914.62 ± 0.75 | 909.86 ± 0.77 | 906.68 ± 0.78 | 1258 ± 2 | 1235 ± 2 | 2.721 ± 0.043 | 2.196 ± 0.035
x1 = 0.5551 | 911.01 ± 0.77 | 906.21 ± 0.79 | 901.38 ± 0.8 | 898.24 ± 0.81 | 1243 ± 2 | 1220 ± 2 | 2.165 ± 0.034 | 1.802 ± 0.029
x1 = 0.6523 | 898.71 ± 0.82 | 893.81 ± 0.84 | 888.88 ± 0.86 | 885.8 ± 0.87 | 1223 ± 2 | 1199 ± 2 | 1.56 ± 0.025 | 1.357 ± 0.022
x1 = 0.7497 | 887.92 ± 0.87 | 882.93 ± 0.89 | 877.91 ± 0.9 | 874.87 ± 0.91 | 1211 ± 2 | 1182 ± 2 | 1.191 ± 0.02 | 1.075 ± 0.018
x1 = 0.8495 | 878.28 ± 0.91 | 873.2 ± 0.93 | 868.1 ± 0.95 | 865.12 ± 0.95 | 1202 ± 2 | 1169 ± 2 | 0.961 ± 0.016 | 0.893 ± 0.015
x1 = 0.9426 | 870.47 ± 0.95 | 865.34 ± 0.96 | 860.17 ± 0.98 | 857.24 ± 0.99 | 1197 ± 2 | 1160 ± 2 | 0.831 ± 0.014 | 0.788 ± 0.014

OCCOCCOCCO [triethylene glycol] + CCCCOC(C)=O
[2]
Settings | mass density, 298.15 K [kg/m3] | mass density, 303.15 K [kg/m3] | mass density, 308.15 K [kg/m3] | mass density, 313.15 K [kg/m3] | speed of sound, 298.15 K [m/s] | speed of sound, 308.15 K [m/s] | viscosity, 298.15 K [mPa·s] | viscosity, 308.15 K [mPa·s]
x2 = 0.0452 | 1108.89 ± 0.32 | 1105.14 ± 0.31 | 1101.13 ± 0.3 | 1098.6 ± 0.3 | 1586 ± 2 | 1559 ± 2 | 31.2 ± 0.42 | 18.96 ± 0.33
x2 = 0.1515 | 1083.49 ± 0.32 | 1079.63 ± 0.32 | 1075.41 ± 0.32 | 1072.59 ± 0.32 | 1524 ± 2 | 1498 ± 2 | 24.06 ± 0.34 | 14.16 ± 0.25
x2 = 0.2488 | 1060.06 ± 0.35 | 1056.08 ± 0.35 | 1051.65 ± 0.36 | 1048.53 ± 0.36 | 1470 ± 2 | 1446 ± 2 | 18.29 ± 0.27 | 10.62 ± 0.2
x2 = 0.3493 | 1035.73 ± 0.4 | 1031.63 ± 0.41 | 1026.98 ± 0.42 | 1023.57 ± 0.42 | 1420 ± 2 | 1395 ± 2 | 13.28 ± 0.2 | 7.731 ± 0.15
x2 = 0.4464 | 1012.14 ± 0.47 | 1007.94 ± 0.48 | 1003.07 ± 0.49 | 999.41 ± 0.5 | 1375 ± 2 | 1350 ± 2 | 9.402 ± 0.14 | 5.575 ± 0.11
x2 = 0.4953 | 1000.24 ± 0.51 | 995.98 ± 0.52 | 991.02 ± 0.53 | 987.24 ± 0.54 | 1355 ± 2 | 1329 ± 2 | 7.798 ± 0.12 | 4.694 ± 0.092
x2 = 0.5495 | 987.03 ± 0.55 | 982.72 ± 0.56 | 977.64 ± 0.57 | 973.75 ± 0.58 | 1334 ± 2 | 1307 ± 2 | 6.273 ± 0.1 | 3.856 ± 0.074
x2 = 0.6493 | 962.66 ± 0.63 | 958.25 ± 0.64 | 952.97 ± 0.65 | 948.88 ± 0.66 | 1298 ± 2 | 1267 ± 2 | 4.084 ± 0.069 | 2.642 ± 0.048
x2 = 0.7488 | 938.29 ± 0.71 | 933.77 ± 0.72 | 928.31 ± 0.74 | 924.03 ± 0.75 | 1265 ± 2 | 1232 ± 2 | 2.566 ± 0.044 | 1.776 ± 0.031
x2 = 0.8515 | 913.02 ± 0.8 | 908.37 ± 0.81 | 902.74 ± 0.83 | 898.24 ± 0.84 | 1233 ± 2 | 1197 ± 2 | 1.528 ± 0.026 | 1.153 ± 0.02
x2 = 0.9421 | 890.6 ± 0.88 | 885.8 ± 0.9 | 880.04 ± 0.91 | 875.29 ± 0.93 | 1207 ± 2 | 1168 ± 2 | 0.936 ± 0.016 | 0.774 ± 0.014

COC(C)=O [methyl ethanoate] + OCCO
[2]
Settings | mass density, 298.15 K [kg/m3] | mass density, 303.15 K [kg/m3] | mass density, 308.15 K [kg/m3] | mass density, 313.15 K [kg/m3] | speed of sound, 298.15 K [m/s] | speed of sound, 308.15 K [m/s] | viscosity, 298.15 K [mPa·s] | viscosity, 308.15 K [mPa·s]
x1 = 0.0444 | 1100.26 ± 0.3 | 1096.48 ± 0.3 | 1092.85 ± 0.29 | 1089.11 ± 0.29 | 1627 ± 2 | 1600 ± 2 | 11.86 ± 0.16 | 8.678 ± 0.13
x1 = 0.1488 | 1077.91 ± 0.32 | 1073.64 ± 0.31 | 1070.12 ± 0.31 | 1065.97 ± 0.32 | 1550 ± 2 | 1521 ± 2 | 7.177 ± 0.1 | 5.649 ± 0.082
x1 = 0.2505 | 1056.96 ± 0.35 | 1052.6 ± 0.35 | 1049.33 ± 0.36 | 1045.05 ± 0.36 | 1482 ± 2 | 1452 ± 2 | 4.535 ± 0.069 | 3.788 ± 0.056
x1 = 0.3485 | 1037.61 ± 0.4 | 1033.23 ± 0.4 | 1030.22 ± 0.41 | 1025.91 ± 0.42 | 1424 ± 2 | 1391 ± 2 | 2.996 ± 0.046 | 2.623 ± 0.04
x1 = 0.4411 | 1020.06 ± 0.45 | 1015.63 ± 0.46 | 1012.78 ± 0.46 | 1008.44 ± 0.47 | 1374 ± 2 | 1338 ± 2 | 2.078 ± 0.032 | 1.882 ± 0.029
x1 = 0.4856 | 1011.89 ± 0.48 | 1007.39 ± 0.49 | 1004.56 ± 0.49 | 1000.19 ± 0.5 | 1351 ± 2 | 1315 ± 2 | 1.758 ± 0.028 | 1.614 ± 0.025
x1 = 0.5507 | 1000.2 ± 0.51 | 995.55 ± 0.52 | 992.71 ± 0.53 | 988.26 ± 0.54 | 1320 ± 2 | 1282 ± 2 | 1.39 ± 0.022 | 1.296 ± 0.021
x1 = 0.6503 | 982.94 ± 0.57 | 977.9 ± 0.58 | 974.92 ± 0.59 | 970.21 ± 0.6 | 1276 ± 2 | 1237 ± 2 | 0.994 ± 0.017 | 0.941 ± 0.016
x1 = 0.7489 | 966.49 ± 0.63 | 960.93 ± 0.64 | 957.65 ± 0.65 | 952.55 ± 0.67 | 1237 ± 2 | 1196 ± 2 | 0.734 ± 0.013 | 0.697 ± 0.012
x1 = 0.8498 | 950.22 ± 0.69 | 944.03 ± 0.7 | 940.33 ± 0.71 | 934.64 ± 0.73 | 1199 ± 2 | 1157 ± 2 | 0.554 ± 0.01 | 0.522 ± 0.01
x1 = 0.9453 | 935.24 ± 0.74 | 928.45 ± 0.76 | 924.26 ± 0.77 | 917.85 ± 0.79 | 1167 ± 2 | 1122 ± 2 | 0.435 ± 0.008 | 0.404 ± 0.008

OCCOCCO [diethylene glycol] + CCOC(C)=O
[2]
Settings | mass density, 298.15 K [kg/m3] | mass density, 303.15 K [kg/m3] | mass density, 308.15 K [kg/m3] | mass density, 313.15 K [kg/m3] | speed of sound, 298.15 K [m/s] | speed of sound, 308.15 K [m/s] | viscosity, 298.15 K [mPa·s] | viscosity, 308.15 K [mPa·s]
x2 = 0.0441 | 1103.89 ± 0.31 | 1100.06 ± 0.3 | 1096.4 ± 0.3 | 1092.83 ± 0.29 | 1557 ± 2 | 1527 ± 2 | 26.54 ± 0.38 | 14.6 ± 0.29
x2 = 0.1491 | 1081.32 ± 0.32 | 1077.52 ± 0.32 | 1073.43 ± 0.32 | 1069.24 ± 0.32 | 1501 ± 2 | 1467 ± 2 | 19.33 ± 0.29 | 10.14 ± 0.21
x2 = 0.2504 | 1059.83 ± 0.35 | 1055.84 ± 0.35 | 1051.57 ± 0.36 | 1047.06 ± 0.36 | 1444 ± 2 | 1410 ± 2 | 13.79 ± 0.22 | 7.076 ± 0.16
x2 = 0.3491 | 1039 ± 0.4 | 1034.73 ± 0.4 | 1030.34 ± 0.41 | 1025.66 ± 0.42 | 1393 ± 2 | 1358 ± 2 | 9.631 ± 0.16 | 4.946 ± 0.12
x2 = 0.4487 | 1017.94 ± 0.46 | 1013.34 ± 0.47 | 1008.79 ± 0.48 | 1004.01 ± 0.49 | 1346 ± 2 | 1311 ± 2 | 6.504 ± 0.11 | 3.42 ± 0.079
x2 = 0.5011 | 1006.8 ± 0.49 | 1002.03 ± 0.5 | 997.36 ± 0.52 | 992.53 ± 0.53 | 1322 ± 2 | 1287 ± 2 | 5.226 ± 0.091 | 2.808 ± 0.064
x2 = 0.5485 | 996.65 ± 0.52 | 991.74 ± 0.54 | 986.94 ± 0.55 | 982.07 ± 0.56 | 1301 ± 2 | 1267 ± 2 | 4.257 ± 0.075 | 2.345 ± 0.052
x2 = 0.6492 | 974.85 ± 0.59 | 969.64 ± 0.61 | 964.5 ± 0.62 | 959.48 ± 0.63 | 1261 ± 2 | 1226 ± 2 | 2.692 ± 0.048 | 1.591 ± 0.032
x2 = 0.7505 | 952.44 ± 0.67 | 946.98 ± 0.68 | 941.47 ± 0.7 | 936.2 ± 0.71 | 1223 ± 2 | 1188 ± 2 | 1.645 ± 0.029 | 1.068 ± 0.02
x2 = 0.8492 | 930.05 ± 0.75 | 924.36 ± 0.76 | 918.52 ± 0.78 | 912.88 ± 0.8 | 1189 ± 2 | 1151 ± 2 | 0.988 ± 0.018 | 0.719 ± 0.013
x2 = 0.9445 | 907.81 ± 0.83 | 901.89 ± 0.84 | 895.89 ± 0.86 | 889.73 ± 0.88 | 1157 ± 2 | 1116 ± 2 | 0.587 ± 0.011 | 0.487 ± 0.009
